Assay results published in paper PMC8880564, “Design, Synthesis, and Biological Evaluation of a Novel VEGFR-2 Inhibitor Based on a 1,2,5-Oxadiazole-2-Oxide Scaffold with MAPK Signaling Pathway Inhibition” (Pharmaceuticals, 2022).

Tests used:
Assay in all cases: NCI-60 one-dose SRB screening
Format in all cases: cell-based
ACHN = details: Homo sapiens, Renal Cancer, 10 µM one dose, 48 h, read-out: growth percentage
DU-145 = details: Homo sapiens, DU-145, Prostate Cancer, 10 µM one dose, 48 h, read-out: growth percentage
HCT-15 = details: Homo sapiens, HCT-15, Colon Cancer, 10 µM one dose, 48 h, read-out: growth percentage
HOP-92 = details: Homo sapiens, HOP-92, Non-Small Cell Lung Cancer, 10 µM one dose, 48 h, read-out: growth percentage
IGROV1 = details: Homo sapiens, IGROV-1, IGROV1, Ovarian Cancer, 10 µM one dose, 48 h, read-out: growth percentage
M14 = details: Homo sapiens, M14, Melanoma, 10 µM one dose, 48 h, read-out: growth percentage
MDA-MB-231/ATCC = details: Homo sapiens, Breast Cancer, 10 µM one dose, 48 h, read-out: growth percentage
NCI-H23 = details: Homo sapiens, NCI-H23, Non-Small Cell Lung Cancer, 10 µM one dose, 48 h, read-out: growth percentage
NCI-H522 = details: Homo sapiens, NCI-H522, Non-Small Cell Lung Cancer, 10 µM one dose, 48 h, read-out: growth percentage
NCI/ADR-RES = details: Homo sapiens, Ovarian Cancer, 10 µM one dose, 48 h, read-out: growth percentage
RPMI-8226 = details: Homo sapiens, RPMI-8226, Leukemia, 10 µM one dose, 48 h, read-out: growth percentage
SF-268 = details: Homo sapiens, SF-268, CNS Cancer, 10 µM one dose, 48 h, read-out: growth percentage
SF-539 = details: Homo sapiens, SF-539, CNS Cancer, 10 µM one dose, 48 h, read-out: growth percentage
SK-MEL-28 = details: Homo sapiens, SK-MEL-28, Melanoma, 10 µM one dose, 48 h, read-out: growth percentage
SK-MEL-2 = details: Homo sapiens, SK-MEL-2, Melanoma, 10 µM one dose, 48 h, read-out: growth percentage
SK-MEL-5 = details: Homo sapiens, SK-MEL-5, Melanoma, 10 µM one dose, 48 h, read-out: growth percentage
SR = details: Homo sapiens, Leukemia, 10 µM one dose, 48 h, read-out: growth percentage
SW-620 = details: Homo sapiens, SW-620, Colon Cancer, 10 µM one dose, 48 h, read-out: growth percentage
T-47D = details: Homo sapiens, T47D, Breast Cancer, 10 µM one dose, 48 h, read-out: growth percentage
U251 = details: Homo sapiens, U-251, U251, CNS Cancer, 10 µM one dose, 48 h, read-out: growth percentage
UACC-62 = details: Homo sapiens, UACC-62, Melanoma, 10 µM one dose, 48 h, read-out: growth percentage
UO-31 = details: Homo sapiens, UO-31, Renal Cancer, 10 µM one dose, 48 h, read-out: growth percentage

Compound | activity at 10 µM (ACHN) | activity at 10 µM (DU-145) | activity at 10 µM (HCT-15) | activity at 10 µM (HOP-92) | activity at 10 µM (IGROV1) | activity at 10 µM (M14) | activity at 10 µM (MDA-MB-231/ATCC) | activity at 10 µM (NCI-H23) | activity at 10 µM (NCI-H522) | activity at 10 µM (NCI/ADR-RES) | activity at 10 µM (SF-268) | activity at 10 µM (SF-539) | activity at 10 µM (SK-MEL-28) | activity at 10 µM (SK-MEL-2) | activity at 10 µM (SK-MEL-5) | activity at 10 µM (SW-620) | activity at 10 µM (T-47D) | activity at 10 µM (U251) | activity at 10 µM (UACC-62) | activity at 10 µM (UO-31) | also measured
O=c1[nH]c(CNc2ccc(NCc3c(-c4ccccc4)no[n+]3[O-])cc2)nc2c1cnn2-c1ccccc1 [14a, 3-(((4-(((4-oxo-1-phenyl-4,5-dihydro-1H-pyrazolo[3,4-d]pyrimidin-6-yl)methyl)amino)phenyl)amino)methyl)-4-phenyl-1,2,5-oxadiazole 2-oxide] | 70.4% | 74.6% | 71.2% | 85.4% | 52.5% | 80% | 72.5% | 63.4% | 60.8% | 79.4% | 73.5% | 92.6% | 77.2% | 77.8% | 85.3% | 92.8% | 42.5% | 76.1% | 60.6% | 55.9% | activity at 10 µM (RPMI-8226): 61.9%; activity at 10 µM (SR): 45.7%
Cc1nc(Nc2ccc(OCc3c(-c4ccccc4)no[n+]3[O-])cc2)c2c(C)nn(-c3ccccc3)c2n1 [6d, 3-((4-((3,6-dimethyl-1-phenyl-1H-pyrazolo[3,4-d]pyrimidin-4-yl)amino)phenoxy)methyl)-4-phenyl-1,2,5-oxadiazole 2-oxide] | 95.5% | 112% | 104% | 104% | 106% | 96.2% | 101% | 102% | 105% | 102% | 106% | 99.8% | 102% | 121% | 98% | 119% | 104% | 106% | 89.6% | 88.5% | activity at 10 µM (RPMI-8226): 106%; activity at 10 µM (SR): 102%
Nc1ccc(NCc2c(-c3ccccc3)no[n+]2[O-])cc1 [compound 11, 3-(((4-aminophenyl)amino)methyl)-4-phenyl-1,2,5-oxadiazole 2-oxide] | 104% | 112% | 104% | 116% | 88.7% | 102% | 104% | 105% | 93.5% | 104% | 101% | 104% | 101% | 105% | 112% | 115% | 101% | 102% | 95.5% | 98.9% | activity at 10 µM (RPMI-8226): 97.5%; activity at 10 µM (SR): 104%
Cc1nc(Nc2ccc(OCc3c(-c4ccccc4)no[n+]3[O-])cc2)c2c(C)nn(-c3ccc(Br)cc3)c2n1 [6h, 3-((4-((1-(4-bromophenyl)-3,6-dimethyl-1H-pyrazolo[3,4-d]pyrimidin-4-yl)amino)phenoxy)methyl)-4-phenyl-1,2,5-oxadiazole 2-oxide] | 98.7% | 102% | 79% | 94.6% | 99% | 89.5% | 100% | 96.6% | 84% | 102% | 94.7% | 96.1% | 101% | 96.9% | 91.5% | 101% | 81.4% | 96.4% | 80.2% | 74% | activity at 10 µM (RPMI-8226): 90.6%; activity at 10 µM (SR): 72%
Cc1nc(Nc2ccc(OCc3c(-c4ccccc4)no[n+]3[O-])cc2)c2cnn(-c3ccc(Br)cc3)c2n1 [6f, 3-((4-((1-(4-bromophenyl)-6-methyl-1H-pyrazolo[3,4-d]pyrimidin-4-yl)amino)phenoxy)methyl)-4-phenyl-1,2,5-oxadiazole 2-oxide] | 101% | 104% | 98.1% | 111% | 101% | 94.2% | 106% | 95.8% | 92.5% | 106% | 99.9% | 94.2% | 103% | 114% | 99.7% | 109% | 97.2% | 99% | 84.8% | 82.7% | activity at 10 µM (RPMI-8226): 115%; activity at 10 µM (SR): 87.1%
Cc1nn(-c2ccc(Br)cc2)c2nc(C(F)(F)F)nc(Nc3ccc(NCc4c(-c5ccccc5)no[n+]4[O-])cc3)c12 [12c, 3-(((4-((1-(4-bromophenyl)-3-methyl-6-(trifluoromethyl)-1H-pyrazolo[3,4-d]pyrimidin-4-yl)amino)phenyl)amino)methyl)-4-phenyl-1,2,5-oxadiazole 2-oxide] | 68.1% | 84.8% | 34.6% | 82.3% | 59.6% | 71.9% | 65.9% | 91.6% | 83.5% | 88.8% | 73.2% | 59.4% | 89.5% | 104% | 61.7% | 79.7% | 85.6% | 54.1% | 62.5% | 50.3% | activity at 10 µM (RPMI-8226): 91.1%; activity at 10 µM (SR): 55.5%
Cc1nn(-c2ccc(Br)cc2)c2nc(CCl)[nH]c(=O)c12 [13c] | 94.8% | 110% | 103% | 101% | 95.1% | 106% | 94.1% | 103% | 85.5% | 102% | 99.4% | 77% | 99.9% | 103% | 103% | 110% | 91.5% | 99.7% | 101% | -90.1% | activity at 10 µM (RPMI-8226): -53.9%
Cc1nn(-c2ccccc2)c2nc(CCl)[nH]c(=O)c12 [13b] | 90.2% | 83.6% | 90.6% | 117% | 96.2% | 103% | 88.4% | 98.8% | 89.8% | 102% | 106% | 36.9% | 105% | 97.9% | 110% | 85.1% | 66% | 93.9% | 97.9% | -86.3% | activity at 10 µM (SR): 39.8%
